Test results from US12344610B2, “APOL1 inhibitors and methods of use” (Maze Therapeutics, Inc., priority 2022, dated 2025).

Biological target: T1, APOL1 G2 (Homo sapiens, UniProt O14791, DEL388-389)
T1 construct: expressed in transfected cells; host or cells: HEK293 T-REx clonal line stably expressing GCaMP6f (HEK T-REx/GCaMP6f/APOL1 G2 K6.3), doxycycline induced
T1 sequence (O14791 with tags, fused parts or gaps DEL388-389): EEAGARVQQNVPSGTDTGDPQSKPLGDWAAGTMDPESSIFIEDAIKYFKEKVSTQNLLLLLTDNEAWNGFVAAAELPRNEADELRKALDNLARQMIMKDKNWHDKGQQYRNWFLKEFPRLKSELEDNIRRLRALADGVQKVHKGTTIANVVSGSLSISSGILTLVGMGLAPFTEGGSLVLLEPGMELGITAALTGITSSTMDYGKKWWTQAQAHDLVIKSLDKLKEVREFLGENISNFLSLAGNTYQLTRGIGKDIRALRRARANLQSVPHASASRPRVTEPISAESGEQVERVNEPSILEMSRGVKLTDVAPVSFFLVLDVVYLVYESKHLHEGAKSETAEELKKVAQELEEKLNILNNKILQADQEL
Test: APOL1-mediated calcium transport (calcium influx) assay, HEK T-REx/GCaMP6f/APOL1 G2 K6.3 cells, FLIPR TETRA
Type: cell-based
Settings: prevention of calcium influx; geometric mean of at least 2 assay runs; † = average of a technical replicate from a single assay run
In short: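 A HEK293 T-REx clone stably expressing GCaMP6f had APOL1 G2 induced with doxycycline (20 ng/mL solution added) for 6 h. Cells were then washed into Ca2+-free Tyrode's buffer (pH 7.4) and preincubated with compounds (duplicate 8-point) for 10 min at room temperature. Ca2+ injection to 5 mM final produced FLIPR GCaMP fluorescence, giving AC50 for influx inhibition (geometric mean, ≥2 runs).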

| Compound | AC50 [nM] |
| --- | --- |
| Cn1ncc2cc(OCCN3CCC4(CC3)C(=O)Nc3ccc(Cl)cc34)ccc21 [Compound 68, 5-chloro-1′-{2-[(1-methyl-1H-indazol-5-yl)oxy]ethyl}-1,2-dihydrospiro[indole-3,4′-piperidin]-2-one] | < 249 |
| CC(C)(O)c1ncc(OCCN2CCC3(CC2)C(=O)Nc2ccc(Cl)cc23)cc1C(F)(F)F [Compound 371, 5-chloro-1′-(2-{[6-(2-hydroxypropan-2-yl)-5-(trifluoromethyl)pyridin-3-yl]oxy}ethyl)-1,2-dihydrospiro[indole-3,4′-piperidin]-2-one] | 504 |
